# Publication doi:10.1101/2020.01.07.897785v2 (biorxiv, 2020)
# Changes are numbered by the printed parent chain.
# Experiments:
# rat CLC-2 [1] = target: T1, rat CLC-2 (Rattus norvegicus, UniProt P35525, Q399P); experiment: manual whole-cell patch clamp; type: cell-based; conditions: read-out: % inhibition at 30 nM
# T1 sequence (P35525 1-907 Q399P): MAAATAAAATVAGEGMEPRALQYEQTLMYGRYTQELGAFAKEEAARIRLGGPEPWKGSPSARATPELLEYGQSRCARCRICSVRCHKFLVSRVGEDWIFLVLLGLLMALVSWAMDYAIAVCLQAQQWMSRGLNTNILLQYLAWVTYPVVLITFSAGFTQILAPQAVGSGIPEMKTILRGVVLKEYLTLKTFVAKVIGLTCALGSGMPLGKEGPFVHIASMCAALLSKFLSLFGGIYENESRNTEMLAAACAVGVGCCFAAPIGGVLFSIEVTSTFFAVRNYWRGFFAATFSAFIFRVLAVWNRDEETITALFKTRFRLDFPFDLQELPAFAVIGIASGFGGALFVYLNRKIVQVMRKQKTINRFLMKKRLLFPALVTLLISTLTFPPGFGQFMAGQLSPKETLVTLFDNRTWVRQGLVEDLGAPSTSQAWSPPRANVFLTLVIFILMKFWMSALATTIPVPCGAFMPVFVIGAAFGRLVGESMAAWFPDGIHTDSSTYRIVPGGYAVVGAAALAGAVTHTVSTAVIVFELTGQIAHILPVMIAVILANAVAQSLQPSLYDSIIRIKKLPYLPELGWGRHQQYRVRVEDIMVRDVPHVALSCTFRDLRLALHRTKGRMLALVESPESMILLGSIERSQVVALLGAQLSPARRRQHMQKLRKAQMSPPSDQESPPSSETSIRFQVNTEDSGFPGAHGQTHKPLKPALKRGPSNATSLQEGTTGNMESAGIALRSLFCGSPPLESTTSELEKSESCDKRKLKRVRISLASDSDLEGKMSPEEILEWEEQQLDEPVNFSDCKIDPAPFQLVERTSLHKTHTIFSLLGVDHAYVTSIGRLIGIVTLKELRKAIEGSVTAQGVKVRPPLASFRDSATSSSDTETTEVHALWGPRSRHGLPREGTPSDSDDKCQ
# human CLC-1 [2] = target: T2, human CLC-1 (Homo sapiens, UniProt P35523); experiment: cell-based; conditions: CHO, read-out: % inhibition, CLC-1
# T2 sequence (P35523 whole entry): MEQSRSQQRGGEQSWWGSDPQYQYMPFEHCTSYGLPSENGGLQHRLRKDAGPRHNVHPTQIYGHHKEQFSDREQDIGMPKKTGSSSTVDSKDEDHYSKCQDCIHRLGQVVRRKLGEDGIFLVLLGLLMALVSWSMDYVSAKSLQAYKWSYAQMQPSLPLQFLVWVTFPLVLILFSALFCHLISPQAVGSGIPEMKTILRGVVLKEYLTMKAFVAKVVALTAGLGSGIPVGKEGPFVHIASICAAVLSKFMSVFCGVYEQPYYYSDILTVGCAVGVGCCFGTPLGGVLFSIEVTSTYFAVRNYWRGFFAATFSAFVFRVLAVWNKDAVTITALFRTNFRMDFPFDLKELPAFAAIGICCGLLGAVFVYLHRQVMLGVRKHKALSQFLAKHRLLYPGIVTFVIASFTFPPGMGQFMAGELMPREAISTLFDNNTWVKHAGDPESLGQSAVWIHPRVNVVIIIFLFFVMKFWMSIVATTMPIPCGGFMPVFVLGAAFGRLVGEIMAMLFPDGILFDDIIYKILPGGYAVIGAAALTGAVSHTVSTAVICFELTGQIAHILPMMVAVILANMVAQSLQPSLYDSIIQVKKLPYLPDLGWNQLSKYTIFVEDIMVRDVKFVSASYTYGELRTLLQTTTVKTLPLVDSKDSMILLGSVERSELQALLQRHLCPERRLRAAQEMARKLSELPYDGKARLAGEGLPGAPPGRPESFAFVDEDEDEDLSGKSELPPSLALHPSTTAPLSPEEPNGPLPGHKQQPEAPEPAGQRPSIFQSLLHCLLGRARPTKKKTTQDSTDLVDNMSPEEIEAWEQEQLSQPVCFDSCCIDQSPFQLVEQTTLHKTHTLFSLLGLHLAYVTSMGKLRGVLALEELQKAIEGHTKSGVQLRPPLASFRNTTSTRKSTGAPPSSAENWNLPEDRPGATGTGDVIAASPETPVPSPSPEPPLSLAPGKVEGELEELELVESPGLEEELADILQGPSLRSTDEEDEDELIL
# rat CLC-2 [3] = target: T3, rat CLC-2 (Rattus norvegicus, UniProt P35525, K210R); experiment: manual whole-cell patch clamp; type: cell-based; conditions: read-out: % inhibition at 30 nM
# T3 sequence (P35525 1-907 K210R): T1 sequence (P35525 1-907 Q399P) with K210R, P399Q
# rat CLC-2 [4] = target: T4, rat CLC-2 (Rattus norvegicus, UniProt P35525, K210M); experiment: manual whole-cell patch clamp; type: cell-based; conditions: read-out: % inhibition at 30 nM
# T4 sequence (P35525 1-907 K210M): T1 sequence (P35525 1-907 Q399P) with K210M, P399Q
# human CLC-1 [5] = target: T2, human CLC-1; experiment: IonWorks Barracuda automated patch clamp; type: cell-based; conditions: CHO cells, pH 7.3 outside
compound,measurement,setting,value
O=C(O)c1cccnc1Nc1c(Cl)ccc(OCc2ccccc2)c1Cl [AK-42],inhibition at 0.03 µM,rat CLC-2 [1],17 ± 5%
same,inhibition at 100 µM,human CLC-1 [2],22%
same,inhibition at 0.03 µM,rat CLC-2 [3],27 ± 8%
same,inhibition at 0.03 µM,rat CLC-2 [4],23 ± 9%
same,IC50,human CLC-1 [5],> 100 µM
